# Read-outs that look alike come from different tables or passages of the source.
# T1: PbdA (Rhodococcus jostii, UniProt Q0SCI3)
# T1 sequence (Q0SCI3 1-400): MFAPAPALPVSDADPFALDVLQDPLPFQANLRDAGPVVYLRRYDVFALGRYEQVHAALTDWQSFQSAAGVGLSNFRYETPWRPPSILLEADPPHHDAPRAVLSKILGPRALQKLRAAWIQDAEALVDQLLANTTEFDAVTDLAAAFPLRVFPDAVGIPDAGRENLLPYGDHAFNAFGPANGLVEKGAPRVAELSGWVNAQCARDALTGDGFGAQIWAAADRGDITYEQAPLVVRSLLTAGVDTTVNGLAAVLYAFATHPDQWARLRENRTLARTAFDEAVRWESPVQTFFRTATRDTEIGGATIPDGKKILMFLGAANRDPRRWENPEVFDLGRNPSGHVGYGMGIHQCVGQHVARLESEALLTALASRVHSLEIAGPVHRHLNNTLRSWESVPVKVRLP
# Key:
# PbdA S87A [1] = target: T2, PbdA S87A (Rhodococcus jostii, UniProt Q0SCI3, S85A); experiment: Activity and coupling assay of PbdA S87A variant with PbdB; format: biochemical, Rhodococcus jostii RHA1; settings: for NADH depletion rate: air-saturated MOPS (I = 0.1 M), pH 7.2, 25 °C
# T2 construct: hexaHis (N, cleaved yes); made in house; host or cells: PbdA variant: E. coli BL-21 λ (DE3); PbdB: Rhodococcus jostii RHA1
# T2 sequence (Q0SCI3 entry or part of it S85A): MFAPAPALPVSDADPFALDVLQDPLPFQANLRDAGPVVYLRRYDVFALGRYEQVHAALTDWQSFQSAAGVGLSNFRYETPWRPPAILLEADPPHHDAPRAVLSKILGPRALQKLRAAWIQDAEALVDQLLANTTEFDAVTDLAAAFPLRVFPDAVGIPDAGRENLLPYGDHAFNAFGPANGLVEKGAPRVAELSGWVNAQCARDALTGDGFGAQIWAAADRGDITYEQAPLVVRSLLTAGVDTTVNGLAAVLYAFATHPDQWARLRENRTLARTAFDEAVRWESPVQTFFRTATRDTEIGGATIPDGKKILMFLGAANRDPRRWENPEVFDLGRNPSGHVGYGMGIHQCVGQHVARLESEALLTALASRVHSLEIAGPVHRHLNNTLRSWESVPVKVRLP
# Procedure: (§1) For activity measurements 0.25 to 1 μM of PbdA and PbdB were combined in a 200 μl cuvette in 20 mM Mops, pH 7.2 with substrate diluted in the same buffer. NADH was added to 350 μM to initiate the reaction. For HPLC analysis, enzymatic reactions were acidified by adding acetic acid to 10% final concentration, centrifuged (16,000×g for 10 min), and filtered through a 0.2 μm polytetrafluoroethylene membrane. Samples were run over a Luna 5 μm C18(2) 100 Å 150 × 3 mm column (Phenomenex) at 0.7 ml min^−1 by a Waters 2695 separation HPLC module. Samples were eluted with a 16.8 ml linear gradient from 1% methanol plus 0.1% formic acid in water to 100% methanol plus 0.1% formic acid and monitored at 280 nm with a Waters 2996 photodiode array detector. Concentrations were determined by interpolation on a standard curve of 0 to 1 mM of authentic standard. NADH concentration was measured by absorbance at 340 nm, ε = 6.22 mM^-1 cm^-1. Coupling was calculated from the ratio of rate of aromatic turnover, as determined by HPLC, and the rate of NADH oxidation, determined spectroscopically. Buffer ionic strength was adjusted by addition of NaCl, as appropriate. Apparent steady-state kinetic parameters were calculated by fitting Michaelis–Menten equations to initial velocity of reactions at various concentrations of aromatic substrate (LEONORA).
# (§2) ^aExperiments were performed using air-saturated MOPS (I = 0.1 M), pH 7.2, at 25 °C. The rate of aromatic substrate turnover was based on the appearance of O-demethylated product. Standard deviation is shown in parentheses.
# CYP199A4 = test system: CYP199A4; parameters: method as in PMID 26969786; settings: cited from earlier work
# PbdA S87A [2] = target: T2, PbdA S87A; experiment: Substrate binding to PbdA S87A variant by spectral titration; parameters: species or system Rhodococcus jostii RHA1
# Procedure: (§3) UV-visible spectroscopy was conducted with a Cary 60 spectrophotometer equipped with a thermostatted cuvette holder at 25 °C. Scans of purified proteins diluted in 20 mM Mops, I = 0.1 M, pH 7.2 were taken between 250 and 700 nm. Heme concentration was calculated as described previously ([35]). Carbon monoxide binding was determined by reduction of PbdA diluted in 20 mM Mops, I = 0.1 M, pH 7.2 as above by a few grains of […]. CO was bubbled into the reduced enzyme for approximately 60 s at a rate of one bubble per second. Dissociation constants (Kd) were determined by titration of ligands diluted into enzyme buffer from 1 M stocks prepared in dimethyl sulfoxide into PbdA diluted in 20 mM Mops, I = 0.1 M, pH 7.2. Spectra take upon addition of substrate were subtracted from the spectrum of the enzyme, and peak-to-trough distance was plotted by ligand concentration. Kd values were determined by fitting a hyperbolic equation to the data as described previously ([23], [36]). The proportion of high-spin heme iron was determined using the approximate peak-to-trough extinction coefficient (ε ≈ 100 mM^−1 cm^−1) ([36]).
# PbdA [3] = target: T1, PbdA; experiment: Substrate binding to PbdA (WT) by type I spectral shift titration; parameters: hexaHis (N, cleaved yes); made in house; host or cells: PbdA: E. coli BL-21 λ (DE3); PbdB: Rhodococcus jostii RHA1; settings: for %High-spin (percent of heme iron in high-spin state): on substrate binding
# Procedure: The affinity of PbdA for various LDACs was measured by the type I spectral shift upon titration of aromatic compound (Fig. 2). This shift occurs as the compound displaces a water coordinated to the heme iron, initiating a spin state transition in the latter from a low spin, hexacoordinate, to a high spin, pentacoordinate form.
# Figure 2 Substrate binding of PbdA. A, difference spectra of PbdA titrated with 1 to 50 μM p-MBA from the substrate-free enzyme. Darker colors indicate higher concentration of p-MBA. Spectra were collected after each addition of substrate to 1 μM enzyme in 20 mM Mops, I = 0.1 M, pH 7.2. B, binding isotherm of PbdA and p-MBA. The fitted curve represents a simple hyperbola. p-MBA, para-methoxybenzoate.
# as §3
# PbdA R84M [4] = target: T3, PbdA R84M (Rhodococcus jostii, UniProt Q0SCI3, R82M); experiment: Substrate binding to PbdA R84M variant by spectral titration; parameters: species or system Rhodococcus jostii RHA1
# T3 construct: hexaHis (N, cleaved yes); made in house; host or cells: PbdA variant: E. coli BL-21 λ (DE3); PbdB: Rhodococcus jostii RHA1
# T3 sequence (Q0SCI3 entry or part of it R82M): as the sequence (Q0SCI3 entry or part of it S85A) above, with R82M, A85S counted along it
# Procedure: as §3
# PbdA S87A/S237A [5] = target: T4, PbdA S87A/S237A (Rhodococcus jostii, UniProt Q0SCI3, S235A/S85A); experiment: Activity and coupling assay of PbdA S87A/S237A variant with PbdB; format: biochemical, Rhodococcus jostii RHA1; settings: for NADH depletion rate: air-saturated MOPS (I = 0.1 M), pH 7.2, 25 °C
# T4 construct: hexaHis (N, cleaved yes); made in house; host or cells: PbdA variant: E. coli BL-21 λ (DE3); PbdB: Rhodococcus jostii RHA1
# T4 sequence (Q0SCI3 entry or part of it S85A/S235A): as the sequence (Q0SCI3 entry or part of it S85A) above, with S235A counted along it
# Procedure: as §1, §2
# PbdA S87A/S237A [6] = target: T4, PbdA S87A/S237A; experiment: Substrate binding to PbdA S87A/S237A variant by spectral titration; parameters: species or system Rhodococcus jostii RHA1
# Procedure: as §3
# PbdA S237A [7] = target: T5, PbdA S237A (Rhodococcus jostii, UniProt Q0SCI3, S235A); experiment: Substrate binding to PbdA S237A variant by spectral titration; parameters: species or system Rhodococcus jostii RHA1
# T5 construct: hexaHis (N, cleaved yes); made in house; host or cells: PbdA variant: E. coli BL-21 λ (DE3); PbdB: Rhodococcus jostii RHA1
# T5 sequence (Q0SCI3 entry or part of it S235A): as the sequence (Q0SCI3 entry or part of it S85A) above, with A85S, S235A counted along it
# Procedure: as §3
# PbdA S237A [8] = target: T5, PbdA S237A; experiment: Activity and coupling assay of PbdA S237A variant with PbdB; format: biochemical, Rhodococcus jostii RHA1; settings: for NADH depletion rate: air-saturated MOPS (I = 0.1 M), pH 7.2, 25 °C
# Procedure: as §1, §2
# PbdA [9] = target: T1, PbdA; settings: for NADH depletion rate / Rate of Aromatic turnover / Coupling: WT PbdAB; for NADH depletion rate: air-saturated MOPS (I = 0.1 M); for Rate of Aromatic turnover: appearance of O-demethylated product (disappearance of p-EB); for Coupling: ratio of aromatic turnover rate to NADH oxidation rate
# Procedure: We then measured coupling under optimum conditions for other substrates. […] Finally, we measured the apparent steady-state kinetic parameters of the PbdA reaction under conditions of maximal coupling (Fig. S4).
# as §1
# PbdA R84M [10] = target: T3, PbdA R84M; experiment: Activity and coupling assay of PbdA R84M variant with PbdB; format: biochemical, Rhodococcus jostii RHA1; settings: air-saturated MOPS (I = 0.1 M), pH 7.2, 25 °C
# Procedure: as §1, §2
# RHA1 = experiment: Growth of RHA1 on p-EB; format: cell-based, Rhodococcus jostii RHA1; settings: M9G with up to 5 mM p-EB; OD600 after 48 hours
# Procedure: RHA1 was grown in M9 media supplemented with a mixture trace metals […]) ([37]) and growth substrate. Growth substrates were solubilized in dimethyl sulfoxide and added to the media. For the growth on p-EB experiment, RHA1 was grown in 1 ml […] supplemented with 5 mM benzoate for 1 day shaking at 30 °C. The cells were spun harvested and washed twice with […] and added to 3 ml […] containing p-EB or benzoate at a final OD600 of 0.05. OD600 of 150 μl culture in a 96-well plate was measured by a TECAN Spark microplate reader. […] When OD600 reached 0.6, cells were harvested, washed twice in […] and suspended in 50 ml of […] 1 mM p-EB. After 4 h of incubation, cell supernatant was collected for LC-MS analysis. Figure S6: Growth of RHA1 on p-EB. Growth of WT in […] supplemented with up to 5 mM of p-EB or 5 mM benzoate. OD600 was measured after 48 hours incubation.
# [11] = substrate: COc1ccc(C(=O)O)cc1O; experiment: purified protein, by the assay type; settings: other: WT PbdA with PbdB, air-saturated Mops (I = 0.1 M), pH 7.2, 25 °C, SD in parentheses
# [12] = WT PbdA, 20 mM Mops, I = 0.1 M, pH 7.2, 25 °C, SD in parentheses, read-out: Kd
# [13] = pH 7.2, 25 °C, SD in parentheses
# [14] = appearance of O-demethylated product
Molecule,NADH depletion rate (PbdA S87A [1]),O-demethylation rate relative to that of p-MBA (CYP199A4) [%],Kd (PbdA S87A [2]) [µM],Kd (PbdA [3]; [12]) [µM],%High-spin (percent of heme iron in high-spin state) (PbdA [3]; WT PbdA) [%],Kd (PbdA R84M [4]) [µM],NADH depletion rate (PbdA S87A/S237A [5]),Kd (PbdA S87A/S237A [6]) [µM],Kd (PbdA S237A [7]) [µM],NADH depletion rate (PbdA S237A [8]),NADH depletion rate (PbdA [9]; [13]),Rate of Aromatic turnover (PbdA [9]; SD in parentheses),NADH depletion rate (PbdA R84M [10]),Coupling (PbdA [9]),further results
"COc1ccc(C(C)=O)cc1 [p-MAP, p-methoxyacetophenone]",265 (7) U mg P450^-1,0.25,14,37,2.8,8,160 (30) U mg P450^-1,8,12,220 (6) U mg P450^-1,117 (6) U mg P450^-1,did not detectably O-demethylate,170 (30) U mg P450^-1,–,–
"COc1ccc(C=O)cc1 [p-MBAL, p-methoxybenzaldehyde]",290 (20) U mg P450^-1,0.1,16,–,7.9,7,200 (4) U mg P450^-1,8,12,300 (50) U mg P450^-1,140 (30) U mg P450^-1,did not detectably O-demethylate,170 (10) U mg P450^-1,–,Coupling (PbdA S87A [1]): 27 (7) %; Specific activity (PbdA S87A [1]; O-demethylation): 80 (30) U μg P450^-1; Rate of Aromatic turnover (PbdA S87A [1]; [14]): 80 (30) U mg P450^-1; Kd (PbdA [3]): 11 µM; Coupling (PbdA S87A/S237A [5]): 90 (20) %; Specific activity (PbdA S87A/S237A [5]; O-demethylation): 180 (20) U μg P450^-1; Rate of Aromatic turnover (PbdA S87A/S237A [5]; [14]): 180 (40) U mg P450^-1; Coupling (PbdA S237A [8]): 9 (3) %; Specific activity (PbdA S237A [8]; O-demethylation): 27 (2) U μg P450^-1; Rate of Aromatic turnover (PbdA S237A [8]; [14]): 30 (3) U mg P450^-1
"COc1ccc(C(=O)O)cc1O [Isovanillate, isovanillate]",–,–,–,90,94,–,–,–,–,–,2200 (200) U mg P450^-1,1600 (100) U mg P450^-1,–,75.3 (0.1) %,Coupling (PbdA [9]; listed as isovanillate): approximately 75%
"CCc1ccc(C(=O)O)cc1 [p-EB, p-ethylbenzoate]",–,–,–,6,72,–,–,–,–,–,830 (80) U mg P450^-1,900 (100) U mg P450^-1,–,110 (7) %,"Growth of RHA1 on the compound as substrate (RHA1): did not grow; kcat (apparent) (PbdA [9]; WT PbdA with PbdB, air-saturated Mops (I = 0.1 M), pH 7.2, 25 °C, SD in parentheses): 0.14 (0.01) s^−1; Km (PbdA [9]; read-out: KM (apparent), WT PbdA with PbdB, air-saturated Mops (I = 0.1 M), pH 7.2, 25 °C, SD in parentheses): 12 µM"
PbdA (Rhodococcus jostii RHA1) (protein) MFAPAPALPVSDADPFALDVLQDPLPFQANLRDAGPVVYLRRYDVFALGRYEQVHAALTDWQSFQSAAGVGLSNFRYETPWRPPSILLEADPPHHDAPRAVLSKILGPRALQKLRAAWIQDAEALVDQLLANTTEFDAVTDLAAAFPLRVFPDAVGIPDAGRENLLPYGDHAFNAFGPANGLVEKGAPRVAELSGWVNAQCARDALTGDGFGAQIWAAADRGDITYEQAPLVVRSLLTAGVDTTVNGLAAVLYAFATHPDQWARLRENRTLARTAFDEAVRWESPVQTFFRTATRDTEIGGATIPDGKKILMFLGAANRDPRRWENPEVFDLGRNPSGHVGYGMGIHQCVGQHVARLESEALLTALASRVHSLEIAGPVHRHLNNTLRSWESVPVKVRLP,–,–,–,–,–,–,–,–,–,–,–,–,–,–,Km [11]: 30 (10) μM; kcat [11]: 0.15 s⁻¹; kcat/Km [11]: 5000 M⁻¹ s⁻¹

# — PMC11530827, “Characterization of a cytochrome P450 that catalyzes the O-demethylation of lignin-derived benzoates” (The Journal of Biological Chemistry, 2024)
